“Also recorded” adds a separate entry of the source. Like-named read-outs stand apart in the source and are kept apart here.
How the values were obtained:
[1] = test system: K^+ -stimulated Ca^++ -uptake in rabbit aortic slices; test: Calcium Uptake in Rabbit Aorta (K+-stimulated Ca++ uptake in aortic slices); assay type: cell-based, New Zealand white rabbits; settings: for inhibition of K+-stimulated Ca++ uptake (in words): rabbit aortic slices, FIG. 2; for effects on calcium mechanisms / calcium movement assays (in words): summary over aortic uptake and contraction assays
Description: Female, New Zealand white rabbits (1-2 kg) were sacrificed by cervical dislocation, and the thoracic […] was immediately removed, cleaned, and sliced into rings (5-20 mg). The tissue was preincubated at 37° C. for 60 minutes. […] After allowing radioactive calcium uptake to occur for 45 minutes, the reaction was stopped by transferring the tissue to a wash-out solution containing 80 mM LaCl3 for 30 minutes. The tissue was removed, blotted of excess moisture, and weighed. The aortic slices were then placed into scintillation vials containing 1 ml Protosol tissue solubilizer and incubated overnight at 55° C. After coding and acidifying, the samples were counted to determine ^45 Ca uptake. Sample results were normalized to counts per minutes per mg, wet tissue weight.

[2] = test system: K^+ -Stimulated Ca^++ -mediated Contractions of Rabbit Aortic Strips; test: Potassium-Induced Calcium-Mediated Contraction of Aortic Strips; assay type: cell-based, New Zealand strain rabbits; settings: for IC50: Oryctolagus cuniculus, read-out: IC50, K+-stimulated Ca++-mediated contractions
Source text: New Zealand strain rabbits (1-1.5 kg) were sacrificed by cervical dislocation and the thoracic cavity was opened to expose a section of the aorta. A section of the aorta from the diaphragm to the aortic arch was isolated, dissected out and immediately placed in chilled Krebs bicarbonate buffer solution. A 2 inch section of the aorta was supported on a glass rod in a petri dish with chilled Krebs bicarbonate solution and cleaned of excess tissue. The aorta was then cut into helical strips (3×30 mm) and suspended from a FT03 isometric force displacement transducer coupled to a Beckman recorder. The tissue bath was filled with Krebs bicarbonate buffer maintained at 37° C. and bubbled with 95% 02 and 5% CO2. The helical strips were allowed to equilibrate for 1.5 to 2 hours with a 4 gram resting load. The tissues were dosed in a cumulative manner with 10 mM, 15 mM, 20 mM, 30 mM, 40 mM, 80 mM and 120 mM KCl. The tissues were washed several times after the KCl treatment and were allowed to equilibrate for 1-1.5 hours until a baseline equivalent to 4 grams tension was achieved. A second dose-response to KCl was repeated and again washed and allowed to equilibrate. […] Changes in grams tension were recorded.

[3] = test system: passive cutaneous anaphylaxis reaction; test: Passive Cutaneous Anaphylaxis Test (PCA), topical antiallergic activity; assay type: in vivo, Male Sprague Dawley rats; settings: for inhibition in vivo at 0.01 % / inhibition in vivo at 1 % / inhibition in vivo at 0.02 % / inhibition in vivo at 0.2 % / inhibition in vivo at 2 %: Rattus norvegicus, read-out: Percent Inhibition
Source text: Male Sprague Dawley rats (175-200 grams) were sensitized intradermally with 0.1 cc of high dilution of antiovalbumin antiserum (IgE-containing) that was predetermined to cause a well circumscribed and reproducible skin wheal response. Two intradermal sensitization sites were applied to the backs of each rat. […] One hour later the rats were challenged intravenously with a solution containing 0.5% ovalbumin and 0.5% Evans blue dye in a saline vehicle. Twenty minutes later the rats were killed by carbon dioxide asphyxiation, the dorsal skin reflected and the blue wheal measured as the mean of the two largest perpendiculars. This mean was used to calculate the area of the wheal according to [A=π(d/2)^2 ]. The wheal area under the drug-treated site was used as an index of local topical activity and the distant site served as an index of systemic activity.

Δ5 -lipoxygenase = molecular target: T1, Δ5 -lipoxygenase (Rattus norvegicus, UniProt P12527); test: Lipoxygenase activity in Rat Basophilic Leukemia Cells (RBL-1), 5-HETE formation; assay type: cell-based; settings: for effect on lipoxygenase activity (in words): rat basophilic cells
T1 construct: Crude cell extract was used as the source of the Δ5 -lipoxygenase enzyme; endogenous in cells; host or cells: RBL-1 (rat basophilic leukemia) cells, whole or sonicated crude extract
T1 sequence (P12527 1-673): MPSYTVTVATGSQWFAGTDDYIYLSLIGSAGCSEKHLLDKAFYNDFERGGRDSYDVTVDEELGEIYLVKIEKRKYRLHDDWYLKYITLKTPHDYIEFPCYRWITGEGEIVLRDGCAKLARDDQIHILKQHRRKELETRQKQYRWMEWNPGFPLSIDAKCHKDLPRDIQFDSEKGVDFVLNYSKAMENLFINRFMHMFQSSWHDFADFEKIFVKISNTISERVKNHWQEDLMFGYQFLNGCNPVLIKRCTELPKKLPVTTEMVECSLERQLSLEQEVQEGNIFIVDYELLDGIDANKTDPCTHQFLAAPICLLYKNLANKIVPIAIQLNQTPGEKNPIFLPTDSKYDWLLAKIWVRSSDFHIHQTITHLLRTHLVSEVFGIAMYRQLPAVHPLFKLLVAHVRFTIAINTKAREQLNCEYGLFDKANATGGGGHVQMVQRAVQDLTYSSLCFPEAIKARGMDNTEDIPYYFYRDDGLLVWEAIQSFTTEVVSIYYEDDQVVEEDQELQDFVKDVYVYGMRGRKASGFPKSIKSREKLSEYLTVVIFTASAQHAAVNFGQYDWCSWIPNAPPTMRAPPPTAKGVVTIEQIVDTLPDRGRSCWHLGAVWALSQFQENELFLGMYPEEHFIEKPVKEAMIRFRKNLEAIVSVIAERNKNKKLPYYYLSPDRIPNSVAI
Description: Rat basophilic leukemia cells (RBL-1) are basophilic members of the leukocyte series and constitute a circulating form of the mast cell, i.e. they share many or all of the biochemical features of the mast cell involved in mediator release. As leukemic cells they are readily available as they can be grown in culture. RBL-1 cells were grown in minimal essential medium (MEM) containing 10% fetal calf serum, 5% calf serum, 2 mM glutamine, and 50 μg/ml gentamicin. The cells were harvested for each assay, washed once with 50 mM potassium phosphate, 1 mM EDTA, and 0.1% gelatin, pH=7.0. The cells were then resuspended to a concentration of 1.85×10^7 cells/ml. For broken cell assays (i.e. to measure direct effects on the enzyme), these cells were sonicated in an ultrasonic sonifier for 3 minutes while maintaining the sample temperature at 4° C. Crude cell extract was used as the source of the Δ5 -lipoxygenase enzyme. […] The reaction was stopped by the addition of 1 M citric acid to give a final pH of approximately 3.5. The reaction mixture was extracted with diethylether, brought to dryness under a stream of nitrogen and the residues were resuspended and spotted on Gilman ITLC silica gel-impregnated glass filter strips. Synthetic hydroxyeicosotetraenoic acid (5-HETE) standard was spotted with each sample and the sheets were developed in isoctane:2-butanone:glacial acetic acid (100:9:1). After development, the sheets were dried, and the 5-HETE standard was visualized in a tank of iodine crystals. Areas corresponding to 5-HETE were quantitated by liquid scintillation counting. The remainder of each lane was also counted in four sections. Activity was determined as the percent conversion of the total counts in each lane to the area corresponding to 5-HETE. Percent inhibition was calculated from the change in percent conversion in the presence of drug. Blanks determined in the presence of boiled cells were subtracted from all values.

[4] = RBL-1, read-out: % Inhibition of lipoxygenase activity
[5] = RBL-1, 1 μM, read-out: % Inhibition of lipoxygenase activity
[6] = RBL-1, 100 μM, read-out: % Inhibition of lipoxygenase activity

Compound	inhibition of vascular contraction (in words) ([2]; rabbit aortic strips)	Significance (P < .05) of inhibition ([3]; Topical Dose 1.00%)	activity in the PCA test (in words) ([3]; topical)	inhibition at 100 µM (Δ5 -lipoxygenase; [4])	effect on lipoxygenase activity (in words) (Δ5 -lipoxygenase)	inhibition in vivo at 0.02 % ([3]; Topical Dose 0.02%)	inhibition in vivo at 0.2 % ([3]; Topical Dose 0.20%)	inhibition in vivo at 2 % ([3]; Topical Dose 2.00%)	Significance (P < .05) of inhibition ([3]; Topical Dose 0.02%)	Significance (P < .05) of inhibition ([3]; Topical Dose 0.20%)	Significance (P < .05) of inhibition ([3]; Topical Dose 2.00%)	also measured
CN1CCC(=C2c3ccccc3C=Cc3ccccc32)CC1 [Cyproheptadine, cyproheptadine]	potent inhibitors	Yes	potent topical antiallergic effect	78%	statistically equipotent effects on lipoxygenase activity from either whole or broken cells							IC50 ([1]; Oryctolagus cuniculus, read-out: IC50, K+-stimulated Ca++ uptake): ~1000 nM; inhibition in vivo at 0.01 % ([3]; topical): 11.7%; inhibition in vivo at 1 % ([3]; topical): 98.1%; Significance (P < .05) of inhibition ([3]; Topical Dose 0.01%): No; Percent Inhibition ([3]; Topical Dose 0.10%): 25.0%; Significance (P < .05) of inhibition ([3]; Topical Dose 0.10%): Yes; topical ED50, inhibition in the PCA test ([3]; topical 0.1 ml, 1 hour before challenge, vehicle water/alcohol/N-decylmethylsulfoxide, 95% F.L. 0.07, 0.25): 0.13%; inhibition of cutaneous allergic reaction (in words) ([3]; topical, 1% dose): virtually complete inhibition
COc1ccc(CCN(C)CCCC(C#N)(c2ccc(OC)c(OC)c2)C(C)C)cc1OC (stereo not drawn) [Verapamil, verapamil]	potent inhibitors	No	totally inactive	51%	slight activity; also recorded: None of the compounds produced significant inhibition with the exception of the very high dose (1×10^-4 M) of verapamil							IC50 [2]: 550 nM; inhibition in vivo at 1 % ([3]; topical): 0%; inhibition at 1 µM (Δ5 -lipoxygenase; [4]): 0%
CC[C@@H](CO)NC(=O)[C@@H]1C=C2c3cccc4c3c(cn4C)C[C@H]2N(C)C1 [Methysergide, methysergide]				30%	None of the compounds produced significant inhibition							inhibition at 1 µM (Δ5 -lipoxygenase; [4]): 1%
CN(C)CCC(c1ccc(Cl)cc1)c1ccccn1 (stereo not drawn) [Chlorpheniramine, chlorpheniramine]			totally inactive		totally inactive; also recorded: None of the compounds produced significant inhibition	20%	16.3%	16.7%	No	No	No	Inhibition of 45Ca++ Uptake Aortic Slices (summary grade) ([1]; Table 4 grade, symbols not defined): +; inhibition of K+-stimulated Ca++ uptake (in words) [1]: totally inactive; effects on calcium mechanisms / calcium movement assays (in words) [1]: marginal effects; inhibition at 1 µM (Δ5 -lipoxygenase; [5]): 0%; inhibition at 100 µM (Δ5 -lipoxygenase; [6]): 1%
CN(C)CCOC(c1ccccc1)c1ccccc1 [Diphenhydramine, diphenhydramine]			inactive			0%	8.5%	43.9%	No	No	No	
Fc1ccc(C(c2ccc(F)cc2)N2CCN(C/C=C/c3ccccc3)CC2)cc1 [Flunarizine, flunarizine]			inactive			16.3%	13%	17.2%	No	No	No	
OCCOCCN1CCN(C(c2ccccc2)c2ccc(Cl)cc2)CC1 (stereo not drawn) [Hydroxyzine, hydroxyzine]	orders of magnitude less potent	No	totally inactive		totally inactive; also recorded: None of the compounds produced significant inhibition							inhibition of K+-stimulated Ca++ uptake (in words) [1]: did not produce 50% inhibition even at a concentration of an order of magnitude greater than the IC50 for cyproheptadine; effects on calcium mechanisms / calcium movement assays (in words) [1]: marginal effects; IC50 ([2]; rabbit aortic strips): 50000 nM; inhibition in vivo at 0.01 % ([3]; Topical Dose 0.01%): 0%; inhibition in vivo at 1 % ([3]; Topical Dose 1.00%): 0%; Significance (P < .05) of inhibition ([3]; Topical Dose 0.01%): No; Percent Inhibition ([3]; Topical Dose 0.10%): 9.7%; Significance (P < .05) of inhibition ([3]; Topical Dose 0.10%): No; inhibition at 1 µM (Δ5 -lipoxygenase; [5]): 0%; inhibition at 100 µM (Δ5 -lipoxygenase; [6]): 15%
CN(C)CCOc1ccccc1Cc1ccccc1 [Phenyltoloxamine, phenyltoloxamine]			inactive			2.6%	14.3%	25.9%	No	No	No	
